Experiments:
[1] = (§1) The drug is tested on Z-021 corresponding to metagenome with ENA study accession number: PRJEB37062 and ENA sample accession number: ERS12561820 for biotransformation under anaerobic condition. The drug concentrations were measured over 9 timepoints collected between 0 and 24 hours of incubation by liquid-chromatography-coupled mass spectrometry (LC–MS); conditions: 2 µM
[2] = human gut metagenome, 24 h, 2 µM
[3] = human gut metagenome, 24 h, 2 µM; remark: listed apart in the source
[4] = as §1, with “Z-026” for “Z-021”, “ERS12561825” for “ERS12561820”; conditions: 2 µM
[5] = human gut metagenome, 24 h, 2 µM; remark: listed apart in the source
[6] = human gut metagenome, 24 h, 2 µM; remark: listed apart in the source
[7] = human gut metagenome, 24 h, 2 µM; remark: listed apart in the source
[8] = (§2) The drug is tested on WLS-098 corresponding to human gut metagenome with ENA study accession number: PRJEB37062 and ENA sample accession number: ERS12561754 for biotransformation under anaerobic condition. The drug concentrations were measured over 9 timepoints collected between 0 and 24 hours of incubation by liquid-chromatography-coupled mass spectrometry (LC–MS); conditions: 2 µM
[9] = as §1, with “Z-023” for “Z-021”, “ERS12561822” for “ERS12561820”; conditions: 2 µM
[10] = human gut metagenome, 24 h, 2 µM; remark: listed apart in the source
[11] = as §2, with “Z-022” for “WLS-098”, “mouse” for “human”, “ERS12561821” for “ERS12561754”; conditions: 2 µM
[12] = as §2, with “Z-016” for “WLS-098”, “mouse” for “human”, “ERS12561815” for “ERS12561754”; conditions: 2 µM
[13] = as §2, with “Z-013” for “WLS-098”, “rabbit” for “human”, “ERS12561813” for “ERS12561754”; conditions: 2 µM
[14] = human gut metagenome, 24 h, 2 µM; remark: listed apart in the source
[15] = human gut metagenome, 24 h, 2 µM; remark: listed apart in the source
[16] = as §2, with “Z-028” for “WLS-098”, “mouse” for “human”, “ERS12561827” for “ERS12561754”; conditions: 2 µM
[17] = as §2, with “Z-001” for “WLS-098”, “mouse” for “human”, “ERS12561801” for “ERS12561754”; conditions: 2 µM
[18] = human gut metagenome, 24 h, 2 µM; remark: listed apart in the source
[19] = as §2, with “Z-007” for “WLS-098”, “rat” for “human”, “ERS12561807” for “ERS12561754”; conditions: 2 µM
[20] = as §2, with “WLS-007” for “WLS-098”, “ERS12561742” for “ERS12561754”; conditions: 2 µM
Note: call rule not given here.

| SMILES | Bacterial Biotransformation [1] | Bacterial Biotransformation [2] | Bacterial Biotransformation [3] | Bacterial Biotransformation [4] | Bacterial Biotransformation [5] | Bacterial Biotransformation [6] | Bacterial Biotransformation [7] | Bacterial Biotransformation [8] | Bacterial Biotransformation [9] | Bacterial Biotransformation [10] | Bacterial Biotransformation [11] | Bacterial Biotransformation [12] | Bacterial Biotransformation [13] | Bacterial Biotransformation [14] | Bacterial Biotransformation [15] | Bacterial Biotransformation [16] | Bacterial Biotransformation [17] | Bacterial Biotransformation [18] | Bacterial Biotransformation [19] | Bacterial Biotransformation [20] |
| --- | --- | --- | --- | --- | --- | --- | --- | --- | --- | --- | --- | --- | --- | --- | --- | --- | --- | --- | --- | --- |
| CNC(=C[N+](=O)[O-])NCCSCc1ccc(CN(C)C)o1 [RANITIDINE] | Compound NOT metabolized | Compound NOT metabolized | Compound NOT metabolized | Compound metabolized | Compound NOT metabolized | Compound NOT metabolized | Compound metabolized | Compound NOT metabolized | Compound metabolized | Compound metabolized | Compound metabolized | Compound metabolized | Compound NOT metabolized | Compound NOT metabolized | Compound NOT metabolized | Compound metabolized | Compound metabolized | Compound metabolized | Compound NOT metabolized | Compound NOT metabolized |
| Nc1nc2ccc(OC(F)(F)F)cc2s1 [RILUZOLE] | Compound metabolized | Compound NOT metabolized | Compound NOT metabolized | Compound metabolized | Compound NOT metabolized | Compound metabolized | Compound metabolized | Compound metabolized | Compound metabolized | Compound NOT metabolized | Compound metabolized | Compound NOT metabolized | Compound NOT metabolized | Compound metabolized | Compound NOT metabolized | Compound NOT metabolized | Compound metabolized | Compound metabolized | Compound NOT metabolized | Compound metabolized |
| CC(C)c1nc(CN(C)C(=O)N[C@H](C(=O)N[C@@H](Cc2ccccc2)C[C@H](O)[C@H](Cc2ccccc2)NC(=O)OCc2cncs2)C(C)C)cs1 [RITONAVIR] | Compound NOT metabolized | Compound NOT metabolized | Compound NOT metabolized | Compound metabolized | Compound NOT metabolized | Compound metabolized | Compound metabolized | Compound metabolized | Compound metabolized | Compound NOT metabolized | Compound NOT metabolized | Compound metabolized | Compound metabolized | Compound metabolized | Compound NOT metabolized | Compound metabolized | Compound NOT metabolized | Compound metabolized | Compound NOT metabolized | Compound metabolized |
| CC(C)NCC(O)c1ccc(NS(C)(=O)=O)cc1 (stereo not given) [SOTALOL] | Compound NOT metabolized | Compound NOT metabolized | Compound NOT metabolized | Compound NOT metabolized | Compound NOT metabolized | Compound NOT metabolized | Compound NOT metabolized | Compound NOT metabolized | Compound NOT metabolized | Compound NOT metabolized | Compound NOT metabolized | Compound NOT metabolized | Compound NOT metabolized | Compound NOT metabolized | Compound NOT metabolized | Compound NOT metabolized | Compound NOT metabolized | Compound NOT metabolized | Compound NOT metabolized | Compound NOT metabolized |
| CCN1CCCC1CNC(=O)c1cc(S(N)(=O)=O)ccc1OC (stereo not given) [SULPIRIDE] | Compound NOT metabolized | Compound NOT metabolized | Compound NOT metabolized | Compound NOT metabolized | Compound NOT metabolized | Compound NOT metabolized | Compound NOT metabolized | Compound metabolized | Compound NOT metabolized | Compound metabolized | Compound NOT metabolized | Compound NOT metabolized | Compound NOT metabolized | Compound metabolized | Compound NOT metabolized | Compound NOT metabolized | Compound metabolized | Compound metabolized | Compound NOT metabolized | Compound NOT metabolized |
| CNS(=O)(=O)Cc1ccc2[nH]cc(CCN(C)C)c2c1.O=C(O)CCC(=O)O [SUMATRIPTAN SUCCINATE] | Compound NOT metabolized | Compound NOT metabolized | Compound NOT metabolized | Compound NOT metabolized | Compound NOT metabolized | Compound NOT metabolized | Compound NOT metabolized | Compound metabolized | Compound NOT metabolized | Compound metabolized | Compound NOT metabolized | Compound NOT metabolized | Compound NOT metabolized | Compound NOT metabolized | Compound NOT metabolized | Compound NOT metabolized | Compound metabolized | Compound metabolized | Compound NOT metabolized | Compound NOT metabolized |
| Nc1c2c(nc3ccccc13)CCCC2 [TACRINE] | Compound NOT metabolized | Compound NOT metabolized | Compound NOT metabolized | Compound NOT metabolized | Compound NOT metabolized | Compound metabolized | Compound NOT metabolized | Compound metabolized | Compound NOT metabolized | Compound NOT metabolized | Compound NOT metabolized | Compound NOT metabolized | Compound NOT metabolized | Compound NOT metabolized | Compound NOT metabolized | Compound NOT metabolized | Compound NOT metabolized | Compound metabolized | Compound NOT metabolized | Compound NOT metabolized |
| Cc1ccc(S(=O)(=O)NC(=O)NN2CCCCCC2)cc1 [TOLAZAMIDE] | Compound metabolized | Compound NOT metabolized | Compound metabolized | Compound NOT metabolized | Compound NOT metabolized | Compound metabolized | Compound metabolized | Compound metabolized | Compound metabolized | Compound NOT metabolized | Compound metabolized | Compound metabolized | Compound metabolized | Compound metabolized | Compound metabolized | Compound metabolized | Compound metabolized | Compound metabolized | Compound NOT metabolized | Compound metabolized |
